Experiments:
[1] = target: 5-hydroxytryptamine receptor 2A (Homo sapiens, UniProt P28223)
Description: Displacement of [3H]Ketanserin from human 5HT2A receptor by liquid scintillation counting

D(4) dopamine receptor = target: T1, D(4) dopamine receptor (Rattus norvegicus, UniProt P30729)
T1 sequence (P30729 whole entry): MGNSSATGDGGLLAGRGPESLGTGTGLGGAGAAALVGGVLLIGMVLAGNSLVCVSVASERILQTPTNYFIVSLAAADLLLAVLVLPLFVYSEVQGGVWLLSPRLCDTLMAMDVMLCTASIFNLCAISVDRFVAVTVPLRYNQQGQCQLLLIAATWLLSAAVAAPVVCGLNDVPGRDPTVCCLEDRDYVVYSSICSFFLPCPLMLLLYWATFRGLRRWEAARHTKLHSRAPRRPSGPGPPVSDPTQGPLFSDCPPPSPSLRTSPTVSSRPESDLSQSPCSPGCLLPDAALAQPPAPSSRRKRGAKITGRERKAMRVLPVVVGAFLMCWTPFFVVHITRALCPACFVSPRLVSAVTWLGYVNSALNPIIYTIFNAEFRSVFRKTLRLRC
Description: Displacement of [3H]N-methylspiperone from rat dopamine D4 receptor by liquid scintillation counting

[2] = target: Sodium-dependent serotonin transporter (Homo sapiens, UniProt P31645)
Description: Displacement of [3H]Citalopram from human SERT by liquid scintillation counting

[3] = target: 5-hydroxytryptamine receptor 7 (Homo sapiens, UniProt P34969)
Description: Displacement of [3H]LSD from human 5HT7 receptor by liquid scintillation counting

[4] = target: T2, 5-hydroxytryptamine receptor 2C (Homo sapiens, UniProt P28335)
T2 sequence (P28335 whole entry): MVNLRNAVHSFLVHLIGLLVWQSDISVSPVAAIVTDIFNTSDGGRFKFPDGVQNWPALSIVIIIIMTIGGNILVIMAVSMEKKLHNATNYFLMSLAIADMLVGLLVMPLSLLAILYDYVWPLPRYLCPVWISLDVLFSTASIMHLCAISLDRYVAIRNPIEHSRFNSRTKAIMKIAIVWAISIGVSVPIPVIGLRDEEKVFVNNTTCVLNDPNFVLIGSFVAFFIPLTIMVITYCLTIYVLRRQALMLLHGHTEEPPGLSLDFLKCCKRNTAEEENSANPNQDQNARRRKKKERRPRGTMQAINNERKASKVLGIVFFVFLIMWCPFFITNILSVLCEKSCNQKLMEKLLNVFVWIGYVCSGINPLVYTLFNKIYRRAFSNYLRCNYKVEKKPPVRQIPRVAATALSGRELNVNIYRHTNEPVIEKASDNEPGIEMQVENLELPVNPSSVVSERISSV
Description: (§1) Binding affinity to human 5HT2C receptor by radioligand displacement assay

[5] = target: T3, 5-hydroxytryptamine receptor 1A (Homo sapiens, UniProt P08908)
T3 sequence (P08908 whole entry): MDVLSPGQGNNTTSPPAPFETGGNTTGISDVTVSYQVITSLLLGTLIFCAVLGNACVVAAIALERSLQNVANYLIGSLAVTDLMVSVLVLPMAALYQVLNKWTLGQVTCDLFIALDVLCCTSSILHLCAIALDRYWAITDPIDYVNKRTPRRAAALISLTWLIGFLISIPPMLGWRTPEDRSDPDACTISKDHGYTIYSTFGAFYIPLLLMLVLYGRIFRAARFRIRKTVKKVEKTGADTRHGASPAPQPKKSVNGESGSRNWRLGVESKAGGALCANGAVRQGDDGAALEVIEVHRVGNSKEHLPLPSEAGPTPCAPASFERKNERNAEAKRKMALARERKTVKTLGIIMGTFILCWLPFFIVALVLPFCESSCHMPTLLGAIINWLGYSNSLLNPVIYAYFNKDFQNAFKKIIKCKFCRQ
Description: Displacement of [3H]8-OH-DPAT from human 5HT1A receptor by liquid scintillation counting

D(2) dopamine receptor = D(2) dopamine receptor (Homo sapiens, UniProt P14416)
Description: Displacement of [3H]N-methylspiperone from human dopamine D2 receptor by liquid scintillation counting

[6] = target: T2, 5-hydroxytryptamine receptor 2C; remark: listed apart in the source
Description: as §1

[7] = target: Sodium-dependent noradrenaline transporter (Homo sapiens, UniProt P23975)
Description: Displacement of [3H]Nisoxetine from human NET by liquid scintillation assay

Histamine H1 receptor = Histamine H1 receptor (Homo sapiens, UniProt P35367)
Description: Displacement of [3H]Pyrilamine from human H1 histamine receptor by liquid scintillation assay

[8] = target: Sodium-dependent dopamine transporter (Homo sapiens, UniProt Q01959)
Chain of Sodium-dependent dopamine transporter (Q01959 whole entry): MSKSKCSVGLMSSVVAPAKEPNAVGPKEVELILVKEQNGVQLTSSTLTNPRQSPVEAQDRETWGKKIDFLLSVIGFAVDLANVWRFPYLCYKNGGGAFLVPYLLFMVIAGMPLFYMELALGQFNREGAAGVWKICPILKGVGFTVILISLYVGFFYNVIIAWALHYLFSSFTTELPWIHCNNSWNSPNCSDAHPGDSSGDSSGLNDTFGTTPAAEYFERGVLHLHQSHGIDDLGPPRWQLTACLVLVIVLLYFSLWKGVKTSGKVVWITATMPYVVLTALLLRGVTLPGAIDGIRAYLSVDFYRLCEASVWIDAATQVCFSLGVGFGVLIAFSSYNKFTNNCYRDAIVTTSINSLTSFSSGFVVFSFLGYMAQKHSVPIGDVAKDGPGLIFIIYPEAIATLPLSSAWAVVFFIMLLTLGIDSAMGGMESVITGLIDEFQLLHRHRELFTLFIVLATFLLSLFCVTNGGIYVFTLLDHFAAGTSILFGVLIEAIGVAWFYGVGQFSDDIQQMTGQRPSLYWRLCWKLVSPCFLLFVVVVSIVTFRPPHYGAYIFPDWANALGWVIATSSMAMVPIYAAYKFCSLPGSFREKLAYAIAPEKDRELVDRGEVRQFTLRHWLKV
Description: Displacement of [3H]GBR12935 from human DAT by liquid scintillation assay

Chain of 5-hydroxytryptamine receptor 2A (P28223 whole entry): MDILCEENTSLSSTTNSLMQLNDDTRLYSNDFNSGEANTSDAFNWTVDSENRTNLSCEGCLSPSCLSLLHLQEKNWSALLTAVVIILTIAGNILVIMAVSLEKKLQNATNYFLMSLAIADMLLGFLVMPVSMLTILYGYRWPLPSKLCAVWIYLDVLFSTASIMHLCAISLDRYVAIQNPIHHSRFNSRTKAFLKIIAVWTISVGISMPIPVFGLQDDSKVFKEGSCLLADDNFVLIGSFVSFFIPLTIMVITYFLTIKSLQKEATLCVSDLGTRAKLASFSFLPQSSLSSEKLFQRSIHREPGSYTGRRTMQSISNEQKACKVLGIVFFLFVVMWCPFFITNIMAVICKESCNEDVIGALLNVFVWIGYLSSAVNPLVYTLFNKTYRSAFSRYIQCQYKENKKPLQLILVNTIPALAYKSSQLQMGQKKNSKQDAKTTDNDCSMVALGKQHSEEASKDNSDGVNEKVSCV
Chain of D(2) dopamine receptor (P14416 whole entry): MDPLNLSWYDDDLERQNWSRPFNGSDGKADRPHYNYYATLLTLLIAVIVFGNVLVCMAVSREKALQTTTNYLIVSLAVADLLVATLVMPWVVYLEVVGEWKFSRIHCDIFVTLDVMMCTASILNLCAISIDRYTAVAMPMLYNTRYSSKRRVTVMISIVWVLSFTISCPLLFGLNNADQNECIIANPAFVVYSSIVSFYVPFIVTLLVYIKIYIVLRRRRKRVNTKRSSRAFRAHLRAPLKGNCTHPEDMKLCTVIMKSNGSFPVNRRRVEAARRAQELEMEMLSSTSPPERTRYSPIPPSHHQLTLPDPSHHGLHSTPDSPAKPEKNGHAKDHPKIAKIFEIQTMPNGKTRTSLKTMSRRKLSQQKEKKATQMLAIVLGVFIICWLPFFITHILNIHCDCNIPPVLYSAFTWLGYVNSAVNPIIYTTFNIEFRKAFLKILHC
Chain of 5-hydroxytryptamine receptor 7 (P34969 whole entry): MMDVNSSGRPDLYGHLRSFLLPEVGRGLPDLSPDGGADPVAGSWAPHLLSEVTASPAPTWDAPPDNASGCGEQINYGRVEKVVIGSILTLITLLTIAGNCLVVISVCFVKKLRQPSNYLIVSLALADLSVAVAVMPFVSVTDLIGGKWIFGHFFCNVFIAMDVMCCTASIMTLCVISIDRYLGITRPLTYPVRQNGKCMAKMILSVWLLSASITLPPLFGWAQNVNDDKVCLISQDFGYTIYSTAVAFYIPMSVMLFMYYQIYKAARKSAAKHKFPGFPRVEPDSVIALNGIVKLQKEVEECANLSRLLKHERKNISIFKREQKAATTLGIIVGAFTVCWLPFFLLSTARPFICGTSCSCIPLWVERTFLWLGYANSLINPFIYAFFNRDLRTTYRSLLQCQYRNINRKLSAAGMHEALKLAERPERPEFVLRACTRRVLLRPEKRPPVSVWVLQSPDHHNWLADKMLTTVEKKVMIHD
Chain of Sodium-dependent serotonin transporter (P31645 whole entry): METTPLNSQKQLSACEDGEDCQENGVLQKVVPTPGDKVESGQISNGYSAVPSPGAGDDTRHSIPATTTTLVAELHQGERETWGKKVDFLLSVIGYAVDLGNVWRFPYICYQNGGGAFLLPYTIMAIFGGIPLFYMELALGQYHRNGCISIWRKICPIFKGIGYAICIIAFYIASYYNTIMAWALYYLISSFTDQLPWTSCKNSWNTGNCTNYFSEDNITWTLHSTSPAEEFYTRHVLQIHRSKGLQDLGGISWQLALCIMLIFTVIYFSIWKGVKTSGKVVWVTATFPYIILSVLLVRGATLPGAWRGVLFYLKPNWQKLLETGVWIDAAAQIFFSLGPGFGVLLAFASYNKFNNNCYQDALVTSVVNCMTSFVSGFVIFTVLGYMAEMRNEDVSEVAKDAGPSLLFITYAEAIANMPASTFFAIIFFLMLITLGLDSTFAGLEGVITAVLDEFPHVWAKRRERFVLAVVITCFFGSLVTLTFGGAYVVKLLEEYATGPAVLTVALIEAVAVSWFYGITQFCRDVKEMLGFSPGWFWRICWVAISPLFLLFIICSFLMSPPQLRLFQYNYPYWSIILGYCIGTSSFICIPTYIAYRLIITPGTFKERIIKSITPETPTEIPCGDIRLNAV
Chain of Sodium-dependent noradrenaline transporter (P23975 whole entry): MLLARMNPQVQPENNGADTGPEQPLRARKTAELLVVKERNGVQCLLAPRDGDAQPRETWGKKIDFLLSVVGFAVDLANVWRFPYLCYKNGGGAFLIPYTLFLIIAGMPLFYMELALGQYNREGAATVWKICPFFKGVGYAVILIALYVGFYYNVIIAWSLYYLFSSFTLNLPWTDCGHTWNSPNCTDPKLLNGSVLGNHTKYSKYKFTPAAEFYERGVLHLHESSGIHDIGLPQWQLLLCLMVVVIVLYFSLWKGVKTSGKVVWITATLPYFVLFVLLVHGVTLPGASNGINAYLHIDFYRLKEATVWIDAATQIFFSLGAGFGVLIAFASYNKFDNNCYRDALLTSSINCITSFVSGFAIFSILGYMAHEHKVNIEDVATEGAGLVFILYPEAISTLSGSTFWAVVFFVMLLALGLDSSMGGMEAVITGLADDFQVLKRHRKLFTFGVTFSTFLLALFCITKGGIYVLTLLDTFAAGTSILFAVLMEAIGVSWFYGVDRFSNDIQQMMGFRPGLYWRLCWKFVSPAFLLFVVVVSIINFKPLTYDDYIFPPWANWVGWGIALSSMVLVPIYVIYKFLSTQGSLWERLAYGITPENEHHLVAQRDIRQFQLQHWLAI
Chain of Histamine H1 receptor (P35367 whole entry): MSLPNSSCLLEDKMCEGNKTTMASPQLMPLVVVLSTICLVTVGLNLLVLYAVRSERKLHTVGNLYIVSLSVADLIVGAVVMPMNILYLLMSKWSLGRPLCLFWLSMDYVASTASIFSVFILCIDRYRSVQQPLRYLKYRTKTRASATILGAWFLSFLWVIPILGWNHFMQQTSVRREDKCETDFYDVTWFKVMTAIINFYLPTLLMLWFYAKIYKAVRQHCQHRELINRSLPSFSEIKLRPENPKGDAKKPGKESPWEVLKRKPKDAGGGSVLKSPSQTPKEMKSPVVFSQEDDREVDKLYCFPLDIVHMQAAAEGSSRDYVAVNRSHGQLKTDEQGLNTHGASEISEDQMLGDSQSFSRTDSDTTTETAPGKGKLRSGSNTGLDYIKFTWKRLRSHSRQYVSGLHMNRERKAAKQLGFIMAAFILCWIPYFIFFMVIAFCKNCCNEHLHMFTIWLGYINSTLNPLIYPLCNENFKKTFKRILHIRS

Compound	Ki [1] [nM]	Ki (D(4) dopamine receptor)	Ki ([2]; read-out: Ki) [nM]	Ki [3]	Ki [4]	Ki [5] [nM]	Ki (D(2) dopamine receptor) [nM]	Ki (D(4) dopamine receptor; read-out: Ki) [nM]	Ki ([3]; read-out: Ki) [nM]	Ki [6] [nM]	Ki [2]	Ki [7] [nM]	Ki (Histamine H1 receptor) [nM]	Ki [8] [nM]
O=C(CCCN1CCN(c2ccccc2)CC1)c1nc2ccccc2s1	> 10000	Not Active	> 10000	Not Active	Not Active	350	> 10000							
c1ccc2c(c1)CN(CCCCc1nc3ccccc3s1)C2	> 10000		186		Not Active	111	990	141	211					
OC1(c2ccc(Cl)cc2)CCN(CCCCc2nc3ccccc3s2)CC1	4260		922		Not Active	771	201	140	983					
Clc1ccc(N2CCN(CCCCc3nc4ccccc4s3)CC2)cc1	132		166			90.5	219	4	329	6210				
O=C(CCCCN1CCC2(CC1)C(=O)NCN2c1ccccc1)c1nc2ccccc2s1	3720		284		Not Active	103		162	518					
O=C(CCCN1CCC(c2ccccc2)CC1)c1nc2ccccc2s1					Not Active	85	530	44.4						
Clc1ccc(N2CCCN(CCCCc3nc4ccccc4s3)CC2)cc1			65						413					
Clc1ccc(N2CCN(CCCc3nc4ccccc4s3)CC2)cc1	36		1180			312	2320	31	790	4650				
Clc1ccc(N2CCCN(CCCc3nc4ccccc4s3)CC2)cc1			34		Not Active				2060					
N#Cc1ccc2[nH]cc(CCCCN3CCN(c4ccc5oc(C(N)=O)cc5c4)CC3)c2c1 [VILAZODONE]							666							
O=C(CCCCN1CCN(c2ccccc2)CC1)c1nc2ccccc2s1						3.6		105						
O=C(CCCCN1CCC(n2c(=O)[nH]c3cc(Cl)ccc32)CC1)c1nc2ccccc2s1	1560		565		Not Active	252	217	1710						
O=C(CCCCN1Cc2ccccc2C1)c1nc2ccccc2s1	> 10000				Not Active			512						
O=C(CCCCN1CCN(c2ncccn2)CC1)c1nc2ccccc2s1					Not Active	3.6					Not Active			
O=C(CCCN1CCCN(c2ccc(Cl)cc2)CC1)c1nc2ccccc2s1			5.3						356					
O=C(CCCCN1CCCN(c2ccc(Cl)cc2)CC1)c1nc2ccccc2s1			65						2810					
c1ccc2c(c1)CCN(CCCCc1nc3ccccc3s1)C2	3810		1320			5.1	30.8	65.5	35.6	6270				
O=C(CCCN1CCN(c2ncccn2)CC1)c1nc2ccccc2s1					Not Active	63		51.5			Not Active			
O=C(CCCCN1CCC(c2ccccc2)CC1)c1nc2ccccc2s1	3.4		64			7.3	642	180	107	3740		49	52	
O=C(CCCCN1CCN(c2ccc(Cl)cc2)CC1)c1nc2ccccc2s1	523		81		Not Active	28.3	4790	100	2920			> 10000	46	4740
O=C(CCCN1CCN(c2ccc(Cl)cc2)CC1)c1nc2ccccc2s1	2000		491	Not Active	Not Active	> 10000	8360	342						
c1cnc(N2CCN(CCCCc3nc4ccccc4s3)CC2)nc1	224							0.8	229	> 10000	Not Active			

Source: ChEMBL document CHEMBL2034919 (Eur J Med Chem, 2012)
